The text below walks through data of publication doi:10.1101/2021.05.27.445942v1 (biorxiv, 2021).

Bounds are passed on as bounds.

The test concerns the target T1, CmedPR2 (with CmedORco) (Cnaphalocrocis medinalis, UniProt A0A0U3BFF0).
T1 sequence (A0A0U3BFF0 1-434): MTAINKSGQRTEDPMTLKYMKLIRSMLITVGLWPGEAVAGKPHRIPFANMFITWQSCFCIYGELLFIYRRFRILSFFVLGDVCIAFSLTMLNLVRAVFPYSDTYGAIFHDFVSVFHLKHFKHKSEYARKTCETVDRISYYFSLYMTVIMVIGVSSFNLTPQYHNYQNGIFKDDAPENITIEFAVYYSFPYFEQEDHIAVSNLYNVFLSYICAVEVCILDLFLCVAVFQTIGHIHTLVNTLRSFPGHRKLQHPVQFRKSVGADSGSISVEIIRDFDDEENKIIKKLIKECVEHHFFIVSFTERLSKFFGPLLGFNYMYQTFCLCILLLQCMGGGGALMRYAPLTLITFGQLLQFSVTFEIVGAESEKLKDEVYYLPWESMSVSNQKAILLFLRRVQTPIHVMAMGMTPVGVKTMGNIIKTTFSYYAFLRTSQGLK
T1 sequence (H9XFD5 1-473 partner): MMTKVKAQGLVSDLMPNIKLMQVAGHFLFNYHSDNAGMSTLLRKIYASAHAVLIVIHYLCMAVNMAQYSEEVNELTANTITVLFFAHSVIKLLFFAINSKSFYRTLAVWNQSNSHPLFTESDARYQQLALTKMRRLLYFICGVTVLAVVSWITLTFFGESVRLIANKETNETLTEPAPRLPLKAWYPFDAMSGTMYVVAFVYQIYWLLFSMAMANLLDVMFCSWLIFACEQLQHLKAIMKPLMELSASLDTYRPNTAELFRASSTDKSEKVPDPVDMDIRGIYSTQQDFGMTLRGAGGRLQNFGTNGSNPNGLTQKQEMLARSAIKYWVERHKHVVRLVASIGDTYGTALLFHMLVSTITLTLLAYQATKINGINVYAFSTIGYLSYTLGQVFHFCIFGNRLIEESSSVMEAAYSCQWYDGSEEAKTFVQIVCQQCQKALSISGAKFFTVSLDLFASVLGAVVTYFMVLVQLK
The experiment in a line: two-electrode voltage clamp, Xenopus oocytes. It is filed as cell-based. The conditions noted are these: agonist 10-4 mol/L; co-expressed CmedORco; holding potential -80 mV; pH 7.5. In general terms: Two-electrode voltage clamp holds a large cell at a set potential and records current.
With `CCCCCC/C=C\CCCCCCCC=O` [Z9-16:Ald], the response current is recorded as > 140 nA. To `CCCC/C=C\CCCCCCCCCCCCO` [Z13-18:OH, (Z)-13-octadecen-1-ol] belongs 46 ± 1.6 nA. To `CCCC/C=C\CCCCCCCCCCCC=O` [Z13-18:Ald, (Z)-13-octadecenal] belongs 106 ± 6.4 nA; to `CCCC/C=C\CCCCCCCCCC=O` [Z11-16:Ald], > 140 nA.
